Patent US10611747B2, “Pyrone based compounds for treating bacterial infections” (FORGE THERAPEUTICS, INC., priority 2015, dated 2020)
In brackets after ≈: the same amount, converted by molar mass. Like-named read-outs stand apart in the source and are kept apart here.

How the values were obtained:
Assay in all cases: Bacterial susceptibility testing (MIC, broth microdilution)
Assay type in all cases: cell-based
[1] = system: S. aureus ATCC 29213; settings: Staphylococcus aureus
Description: (§1) Minimal inhibitory concentrations (MIC) were determined by the broth microdilution method in accordance with the Clinical and Laboratory Standards Institute (CLSI) guidelines. In brief, organism suspensions were adjusted to a 0.5 McFarland standard to yield a final inoculum between 3×10^5 and 7×10^5 colony-forming units (CFU)/mL. Drug dilutions and inocula were made in sterile, cation adjusted Mueller-Hinton Broth (Beckton Dickinson). An inoculum volume of 100 μL was added to wells containing 100 μL of broth with 2-fold serial dilutions of drug. All inoculated microdilution trays were incubated in ambient air at 35° C. for 18-24 h. […] Performance of the assay was monitored by the use of laboratory quality-control strains and levofloxacin, a compound with a defined MIC spectrum, in accordance with CLSI guidelines.

[2] = system: P. aeruginosa 209
Description: as §1

[3] = system: E. coli delta tolC; settings: Escherichia coli, 24 h, read-out: MIC E. coli delta tolC
Description: as §1

[4] = system: E. coli BW25113; settings: Escherichia coli, no FBS, 35° C., 18-24 h
Description: as §1

[5] = system: E. coli ATCC 25922; settings: Escherichia coli
Description: as §1

[6] = system: P. aeruginosa 210 delta mexAB-OprM; settings: Pseudomonas aeruginosa, read-out: MIC P. aeruginosa 210 delta mexAB-OprM
Description: as §1

[7] = system: E. coli imp mutant; settings: Escherichia coli, read-out: MIC E. coli imp mutant
Description: as §1

[8] = ATCC29213, broth microdilution, 35° C., 18-24 h, read-out: MIC S. aureus ATCC 29213
[9] = Pseudomonas aeruginosa, 209, broth microdilution, 35° C., 18-24 h, read-out: MIC P. aeruginosa 209
[10] = ATCC25922, no FBS, broth microdilution, 35° C., 18-24 h, read-out: MIC E. coli ATCC 25922-no FBS
[11] = ATCC29213, read-out: MIC S. aureus ATCC 29213
[12] = Pseudomonas aeruginosa, 209, read-out: MIC P. aeruginosa 209
[13] = ATCC25922, read-out: MIC E. coli ATCC 25922-no FBS

SMILES	MIC [1, 8] [µg/mL]	MIC [2, 9] [µg/mL]	MIC [3] [µg/mL]	MIC [4] [µg/mL]	MIC [5, 10] [µg/mL]	MIC [6] [µg/mL]	MIC [7] [µg/mL]	MIC [1, 11] [µg/mL]	MIC [2, 12] [µg/mL]	MIC [5, 13] [µg/mL]
CNC(=O)c1ccc(-c2ccc(NCc3oc(CNS(C)(=O)=O)cc(=O)c3O)cc2)cc1 [Compound 1, 4′-(((3-hydroxy-6-(methylsulfonamidomethyl)-1-oxo-4H-pyran-2-yl)methyl)amino)-N-methyl-[1,1′-biphenyl]-4-carboxamide]	> 32	> 32	> 32	> 32	> 32	> 32	> 32			
CS(=O)(=O)Cc1cc(=O)c(O)c(CNc2ccc(C#Cc3ccccc3)cc2)o1 [Compound 2, 2-((4-(2-phenylethynyl)phenylamino)methyl)-3-hydroxy-6-((methylsulfonyl)methyl)-4H-pyran-4-one]	> 32	> 32	8 to 32 (≈ 19.5 to 78.2 µM)	> 32	> 32	> 32	> 32			
CS(=O)(=O)Cc1cc(=O)c(O)c(CNc2ccc(C#CC#Cc3ccccc3)cc2)o1 [Compound 5, 2-((4-(4-phenylbuta-1,3-diynyl)phenylamino)methyl)-3-hydroxy-6-((methylsulfonyl)methyl)-4H-pyran-4-one]			1 to 8 (≈ 2.31 to 18.5 µM)	1 to 8 (≈ 2.31 to 18.5 µM)		> 32	1 to 8 (≈ 2.31 to 18.5 µM)	> 32	> 32	8 to 32 (≈ 18.5 to 73.8 µM)
CNC(=O)C#CC#Cc1ccc(NCc2oc(CS(C)(=O)=O)cc(=O)c2O)cc1 [Compound 6, 5-(4-(((3-hydroxy-6-((methylsulfonyl)methyl)-4-oxo-4H-pyran-2-yl)methyl)amino)phenyl)-N-methylpenta-2,4-diynamide]			> 32	> 32		> 32	> 32	> 32	> 32	> 32
CNC(=O)c1ccc(-c2ccc(CCc3oc(CS(C)(=O)=O)cc(=O)c3O)cc2)cc1 [Compound 7, 4′-(2-(3-hydroxy-6-((methylsulfonyl)methyl)-4-oxo-4H-pyran-2-yl)ethyl)-N-methyl-[1,1′-biphenyl]-4-carboxamide]			> 32	> 32		> 32	> 32	> 32	> 32	> 32
CNC(=O)c1ccc(-c2ccc(OCc3oc(CS(C)(=O)=O)cc(=O)c3O)cc2)cc1 [Compound 8, 4′-((3-hydroxy-6-((methylsulfonyl)methyl)-4-oxo-4H-pyran-2-yl)methoxy)-N-methyl-[1,1′-biphenyl]-4-carboxamide]			> 32	> 32		> 32	> 32	> 32	> 32	> 32
CS(=O)(=O)Cc1cc(=O)c(O)c(COc2ccc(C#Cc3ccccc3)cc2)o1 [Compound 9, 2-((4-(2-phenylethynyl)phenoxy)methyl)-3-hydroxy-6-((methylsulfonyl)methyl)-4H-pyran-4-one]			8 to 32 (≈ 19.5 to 78 µM)	> 32		> 32	8 to 32 (≈ 19.5 to 78 µM)	8 to 32 (≈ 19.5 to 78 µM)	> 32	> 32
CS(=O)(=O)Cc1cc(=O)c(O)c(COc2ccc(C#CC#Cc3ccccc3)cc2)o1 [Compound 11]								1 to 8 (≈ 2.3 to 18.4 µM)	> 32	> 32
O=C(NCc1cc(=O)c(O)co1)c1ccc(C#Cc2ccccc2)cc1 [Compound 27]	> 32	> 32	> 32	> 32	> 32	> 32	> 32			
O=C(NCc1cc(=O)c(O)co1)c1ccc(-c2ccccc2)cc1 [Compound 29]	> 32	> 32	> 32	> 32	> 32	> 32	> 32			
O=c1cc(CNc2ccc(C#CC#Cc3ccccc3)cc2)occ1O [Compound 30]	8 to 32 (≈ 23.4 to 93.7 µM)	> 32	> 32	> 32	> 32	> 32	1 to 8 (≈ 2.93 to 23.4 µM)			
COC(=O)c1ccc(C#CC#Cc2ccc(NCc3occc(=O)c3O)cc2)cc1 [Compound 31]	> 32	> 32	1 to 8 (≈ 2.5 to 20 µM)	> 32	> 32	> 32	> 32			
O=C(c1ccc(C#CC#Cc2ccc(NCc3occc(=O)c3O)cc2)cc1)N1CCCCC1 [Compound 33]	> 32	> 32	< 1	1 to 8 (≈ 2.21 to 17.7 µM)	8 to 32 (≈ 17.7 to 70.7 µM)	> 32	1 to 8 (≈ 2.21 to 17.7 µM)			
O=C(NC1CC1)c1ccc(C#CC#Cc2ccc(NCc3occc(=O)c3O)cc2)cc1 [Compound 34]	> 32	> 32	< 1	1 to 8 (≈ 2.36 to 18.8 µM)	1 to 8 (≈ 2.36 to 18.8 µM)	> 32	1 to 8 (≈ 2.36 to 18.8 µM)			
